This test addresses cathepsin B (Homo sapiens, UniProt P07858). The experiment in a line: microscale thermophoresis with CTSB-WT-EGFP in HCT-116 cell lysate. Type of test: binding.

For the compound `CC(C)(O)[C@@H]1CC[C@](C)([C@H]2[C@@H](O)C[C@@]3(C)[C@@H]4C[C@H](O)[C@H]5C(C)(C)[C@@H](O)CC[C@@]56C[C@@]46CC[C@]23C)O1` [CAG, Cycloastragenol], the Kd was found to be 26.6 nM.

The values are drawn from article PMC9621195 (Journal for Immunotherapy of Cancer, 2022).
